Assay results from paper PMC7508583, “Discovery and Preclinical Development of Antigiardiasis Fumagillol Derivatives” (Antimicrobial Agents and Chemotherapy, 2020).
In brackets after ≈: the same amount, converted by molar mass. Where two headings read alike, the source gives them in different places.

How the values were obtained:
[1] = test system: E. histolytica HM1:IMSS trophozoites; experiment: Trophozoite growth inhibition, ATP content (ATPlite) assay; type: cell-based; settings: Entamoeba histolytica, 72 h, read-out: Mean [IC50 ± SE(IC50)] E. histolytica HM1: IMSS
Protocol: Antigiardia assays followed by enzyme inhibition determination facilitated the selection of compounds for permeation and stability studies by in vitro methods, prior to advancing to in vivo studies. Compound potency was evaluated first by measuring G. lamblia trophozoite growth as a function of the compound concentration and calculating the IC50 values. Potency in Entamoeba histolytica trophozoites was also determined because of the early report that fumagillin cured amebiasis ([19]). The intent was to test whether the compounds would be suitable to treat gastrointestinal amebiasis rather than the invasive form of the disease, given that the designed strategy was based on reducing compound permeation across the epithelial cell barrier. […] Trophozoite growth was determined by monitoring the ATP cell content using a high-throughput homogeneous assay developed previously for G. lamblia ([57]). The ATP content serves as a marker of cell integrity since ATP degrades rapidly when cells die and the luminescence signal generated by luciferase requires ATP. The same assay was also adopted in 96-well plates for E. histolytica trophozoite growth measurement, as described in Materials and Methods. A similar E. histolytica trophozoite ATP content assay was described previously ([58]). Fumagillin, TNP-470, and a standard-of-care drug (metronidazole) served as positive controls, and cells without the drug (in the presence of 0.5% dimethyl sulfoxide [DMSO]) served as the negative control.
E. histolytica strain HM1:IMSS trophozoites were grown at 37°C in TYI-S-33 medium supplemented with penicillin (100 U/ml) and streptomycin sulfate (100 μg/ml) ([65]). Trophozoites were grown anaerobically in borosilicate tubes or T25 flasks, and subcultures were made 1 to 2 times a week. Trophozoites were detached for inoculation by chilling the cultures on ice for 20 min.
The growth inhibition assays were performed in duplicate, once for each compound, for all compounds except fumagillin, which served as a positive control and whose inhibitory ability was measured multiple times as new sets of compounds were tested. All dry compounds except for fumagillin were dissolved in dimethyl sulfoxide (DMSO; Sigma) at a stock concentration of 10 mM and then diluted 1:100 in growth medium to a final compound concentration of 100 μM; fumagillin was diluted to 20 μM. Compound solution aliquots (100 μl) were prepared by 3-fold serial dilutions in growth medium containing 0.5% DMSO and distributed into 96-well assay plates. This was followed by the addition of 10 μl G. lamblia or E. histolytica culture containing 10,000 trophozoites. Fumagillin served as a positive control, and the medium-diluted DMSO alone served as a negative control. The assay plates were placed in a BD GasPak EZ container system (BD Diagnostics) to create an anaerobic growth environment. […] Following incubation, 70 μl/well of the ATPlite reagent (PerkinElmer) was added to the assay plates for one-step lysis and ATP level detection. The luminescent signals of the assay plates were measured on an EnSpire 2300 plate reader (PerkinElmer). Concentration-response titration points for each compound were fitted to a 4-parameter logistic nonlinear regression model using the KaleidaGraph tool, yielding the IC50 value and standard error (SE).

[2] = test system: G. lamblia WB trophozoites; experiment: Trophozoite viability MLC determination; type: cell-based, Giardia lamblia; settings: 3 days treatment, 3 days proliferation without drug
Protocol: (§1) The inhibition of metabolism enables the organism to resume proliferation once treatment is completed. To discriminate between the lethality of the promising compounds and the induction of metabolic inactivity by the promising compounds, the minimum lethal concentration (MLC) values were determined by treating the trophozoites with the test compounds for 3 days and transferring the resulting cultures to medium lacking the compounds for 3 days of proliferation. This assay was described previously for G. lamblia ([18]) and was adapted to E. histolytica in the current study.
(§2) Trophozoites of G. lamblia isolates WB and GS were grown anaerobically in borosilicate glass screw-cap culture tubes (Fisher Scientific) at pH 7.0 in Keister’s modified TYI-S-33 medium (ATCC). The medium was supplemented with 10% heat-inactivated bovine serum (Sigma-Aldrich) and 0.05% bovine bile (Sigma-Aldrich). To attain low-oxygen-tension conditions, the tubes were filled to 85% to 90% of their total volume capacity and incubated without shaking at 37°C. Subcultures (2 × 10^5 trophozoites per tube) were made three times a week. Detachment of trophozoites for inoculation was achieved by chilling the cultures on ice for 20 min. Culturing and detachment of metronidazole-resistant G. lamblia assemblage A 713M3 and assemblage B 1279-M1 trophozoites followed the same protocol, except that the growth medium was supplemented with metronidazole, with the concentration gradually being increased to 10 μM.
(§3) Compounds were prepared by 2-fold serial dilutions in growth medium containing 0.5% DMSO (diluted from a starting concentration of 1 μM to 12 concentrations for all compounds except metronidazole, fumagillol, and TNP-470, which were diluted from 100 μM), and 100 μl/well was transferred in duplicate to the 96-well culture plate. Ten microliters of G. lamblia trophozoites was plated at a density of 10,000 cells/well. The plates were incubated under anaerobic condition in a BD GasPak EZ container system (BD Diagnostics) at 37°C for 72 h and surveyed visually under a microscope to check trophozoite survival, mobility, and attachment. […] The tubes were incubated under anaerobic condition for 3 days at 37°C and checked under a microscope. The MLC value was the concentration in the tube with the lowest compound concentration without any live organism.

[3] = test system: metronidazole-resistant G. lamblia 713M3; experiment: Trophozoite viability MLC determination; type: cell-based, Giardia lamblia; settings: metronidazole-resistant strain; 3 days treatment, 3 days proliferation
Protocol: as §1, §2, §3

[4] = test system: metronidazole-resistant G. lamblia 1279-M1; experiment: Trophozoite viability MLC determination; type: cell-based, Giardia lamblia; settings: metronidazole-resistant strain; 3 days treatment, 3 days proliferation
Protocol: as §1, §2, §3

[5] = trophozoite growth, ATP content

Row | Compound | IC50 [1, 5] [nM] | MLC G. lamblia WB [2] | MLC G. lamblia 713M3 [3] | MLC G. lamblia 1279-M1 [4] | IC50 [1] [nM]
1 | COC1C(OC(=O)NC(=O)CN2CCOCC2)CCC2(CO2)C1C1(C)OC1CC=C(C)C (centres unmarked) [Compound 3] | 4 ± 0.1 | 0.98 nM (≈ 0.443 ng/mL) | 3.9 nM (≈ 1.76 ng/mL) | 0.98 nM (≈ 0.443 ng/mL) | –
2 | COC1C(OC(=O)NC(=O)CN2CCC(O)CC2)CCC2(CO2)C1C1(C)OC1CC=C(C)C (centres unmarked) [Compound 4] | 36 ± 4.2 | 3.9 nM (≈ 1.82 ng/mL) | 3.9 nM (≈ 1.82 ng/mL) | 7.8 nM (≈ 3.64 ng/mL) | –
3 | CO[C@@H]1[C@H](OC(=O)Nc2ccc(C(=O)O)cc2)CC[C@]2(CO2)[C@H]1[C@@]1(C)O[C@@H]1CC=C(C)C [Compound 9, 4-(((((3R,4S,5S,6R)-5-methoxy-4-((2R,3R)-2-methyl-3-(3-methylbut-2-en-1-yl)oxiran-2-yl)-1-oxaspiro[2.5]octan-6-yl)oxy)carbonyl)amino)benzoic acid] | – | 3.9 nM (≈ 1.74 ng/mL) | 7.8 nM (≈ 3.47 ng/mL) | 7.8 nM (≈ 3.47 ng/mL) | 6.7 ± 0.5
4 | CCOC(=O)Cc1ccc(NC(=O)OC2CCC3(CO3)C(C3(C)OC3CC=C(C)C)C2OC)cc1 (centres unmarked) [Compound 11] | 43 ± 3.4 | 98 nM (≈ 47.8 ng/mL) | – | – | –
5 | COC1C(OC(=O)N2CCC(O)CC2)CCC2(CO2)C1C1(C)OC1CC=C(C)C (centres unmarked) [Compound 16] | 2.9 ± 0.2 | 1.95 nM (≈ 0.799 ng/mL) | 1.95 nM (≈ 0.799 ng/mL) | 7.8 nM (≈ 3.19 ng/mL) | –
6 | CO[C@@H]1[C@H](OC(=O)/C=C/C=C/C=C/C=C/C(=O)O)CC[C@]2(CO2)[C@H]1[C@@]1(C)O[C@@H]1CC=C(C)C [Fumagillin, reference compound] | – | 125 nM (≈ 57.3 ng/mL) | 250 nM (≈ 115 ng/mL) | 125 nM (≈ 57.3 ng/mL) | 47.9 ± 4.8
7 | Cc1ncc([N+](=O)[O-])n1CCO [Metronidazole, reference compound] | 318 ± 16 | 7,700 nM | 100,000 nM | 100,000 nM | –
